From paper PMC12102759 (Protein Science : A Publication of the Protein Society, 2025)

Tested on: PABPC1 PABC
Format: binding, human
Settings: DMS-BM library, bait PABPC1 PABC, row aa = residue at this position; for DMS-derived PSSM value (averaged), position A6: A = wild type; for DMS-derived PSSM value, position L4 / DMS-derived PSSM value, position L2: L = wild type
[1] = prey ATXN2, TLNPNAKEFNPRSF(averaged) over the two overlapping peptides, N = wild type
[2] = prey ATXN2, peptide TLNPNAKEFNPRSFSQ, F = wild type
[3] = prey ATXN2, peptide KSTLNPNAKEFNPRSF, N = wild type
[4] = prey ATXN2, TLNPNAKEFNPRSF(averaged) over the two overlapping peptides, P = wild type
[5] = prey ATXN2, peptide KSTLNPNAKEFNPRSF, F = wild type
[6] = prey ATXN2, peptide KSTLNPNAKEFNPRSF, S = wild type
[7] = prey ATXN2, TLNPNAKEFNPRSF(averaged) over the two overlapping peptides, E = wild type
[8] = prey ATXN2, peptide TLNPNAKEFNPRSFSQ, N = wild type
[9] = prey ATXN2, peptide TLNPNAKEFNPRSFSQ, K = wild type
[10] = prey ATXN2, TLNPNAKEFNPRSF(averaged) over the two overlapping peptides, S = wild type
[11] = prey ATXN2, peptide KSTLNPNAKEFNPRSF, R = wild type
[12] = prey ATXN2, TLNPNAKEFNPRSF(averaged) over the two overlapping peptides
[13] = prey ATXN2, TLNPNAKEFNPRSF(averaged) over the two overlapping peptides, K = wild type
[14] = prey ATXN2, peptide TLNPNAKEFNPRSFSQ, E = wild type
[15] = prey ATXN2, peptide KSTLNPNAKEFNPRSF, P = wild type
[16] = prey ATXN2, peptide KSTLNPNAKEFNPRSF
[17] = prey ATXN2, TLNPNAKEFNPRSF(averaged) over the two overlapping peptides, T = wild type
[18] = prey ATXN2, peptide TLNPNAKEFNPRSFSQ

## TLNPNAKEFNPRSF(averaged) N10K (TLNPNAKEFKPRSF)
[1]
  DMS-derived PSSM value (averaged), position N10: 0.01006

## TLNPNAKEFNPRSFSQ F9Y (TLNPNAKEYNPRSFSQ)
[2]
  DMS-derived PSSM value, position F9: 0.02013

## KSTLNPNAKEFNPRSF N7G (KSTLNPGAKEFNPRSF)
[3]
  DMS-derived PSSM value, position N7: 0

## TLNPNAKEFNPRSF(averaged) P4M (TLNMNAKEFNPRSF)
[4]
  DMS-derived PSSM value (averaged), position P4: 0.0005819

## KSTLNPNAKEFNPRSF F16Q (KSTLNPNAKEFNPRSQ)
[5]
  DMS-derived PSSM value, position F16: 0.002875

## KSTLNPNAKEFNPRSF S2T (KTTLNPNAKEFNPRSF)
[6]
  DMS-derived PSSM value, position S2: 0.02133

## KSTLNPNAKEFNPRSF E10D (KSTLNPNAKDFNPRSF)
Prey ATXN2, peptide KSTLNPNAKEFNPRSF, E = wild type
  DMS-derived PSSM value, position E10: 0

## TLNPNAKEFNPRSF(averaged) E8G (TLNPNAKGFNPRSF)
[7]
  DMS-derived PSSM value (averaged), position E8: 0

## TLNPNAKEFNPRSFSQ N10G (TLNPNAKEFGPRSFSQ)
[8]
  DMS-derived PSSM value, position N10: 0.01946

## TLNPNAKEFNPRSFSQ K7A (TLNPNAAEFNPRSFSQ)
[9]
  DMS-derived PSSM value, position K7: 0.2382

## TLNPNAKEFNPRSF(averaged) S13Y (TLNPNAKEFNPRYF)
[10]
  DMS-derived PSSM value (averaged), position S13: 0.0362

## TLNPNAKEFNPRSF(averaged) S13T (TLNPNAKEFNPRTF)
[10]
  DMS-derived PSSM value (averaged), position S13: 0.05607

## TLNPNAKEFNPRSFSQ F9G (TLNPNAKEGNPRSFSQ)
[2]
  DMS-derived PSSM value, position F9: 0

## TLNPNAKEFNPRSF(averaged) N10H (TLNPNAKEFHPRSF)
[1]
  DMS-derived PSSM value (averaged), position N10: 0.03178

## KSTLNPNAKEFNPRSF S15G (KSTLNPNAKEFNPRGF)
[6]
  DMS-derived PSSM value, position S15: 0

## KSTLNPNAKEFNPRSF K9V (KSTLNPNAVEFNPRSF)
Prey ATXN2, peptide KSTLNPNAKEFNPRSF, K = wild type
  DMS-derived PSSM value, position K9: 0.0001287

## TLNPNAKEFNPRSFSQ K7N (TLNPNANEFNPRSFSQ)
[9]
  DMS-derived PSSM value, position K7: 0.08014

## KSTLNPNAKEFNPRSF R14Y (KSTLNPNAKEFNPYSF)
[11]
  DMS-derived PSSM value, position R14: 0.04467

## TLNPNAKEFNPRSF(averaged) A6V (TLNPNVKEFNPRSF)
[12]
  DMS-derived PSSM value (averaged), position A6: 0.3197

## KSTLNPNAKEFNPRSF R14N (KSTLNPNAKEFNPNSF)
[11]
  DMS-derived PSSM value, position R14: 0.007229

## TLNPNAKEFNPRSF(averaged) N10I (TLNPNAKEFIPRSF)
[1]
  DMS-derived PSSM value (averaged), position N10: 0.01803

## TLNPNAKEFNPRSFSQ N3Y (TLYPNAKEFNPRSFSQ)
[8]
  DMS-derived PSSM value, position N3: 0

## TLNPNAKEFNPRSF(averaged) P4D (TLNDNAKEFNPRSF)
[4]
  DMS-derived PSSM value (averaged), position P4: 0

## TLNPNAKEFNPRSF(averaged) N3P (TLPPNAKEFNPRSF)
[1]
  DMS-derived PSSM value (averaged), position N3: 0

## TLNPNAKEFNPRSF(averaged) N5T (TLNPTAKEFNPRSF)
[1]
  DMS-derived PSSM value (averaged), position N5: 0.01041

## TLNPNAKEFNPRSF(averaged) K7L (TLNPNALEFNPRSF)
[13]
  DMS-derived PSSM value (averaged), position K7: 0.03789

## TLNPNAKEFNPRSFSQ E8T (TLNPNAKTFNPRSFSQ)
[14]
  DMS-derived PSSM value, position E8: 0.09413

## TLNPNAKEFNPRSFSQ T1D (DLNPNAKEFNPRSFSQ)
Prey ATXN2, peptide TLNPNAKEFNPRSFSQ, T = wild type
  DMS-derived PSSM value, position T1: 0.106

## KSTLNPNAKEFNPRSF P6K (KSTLNKNAKEFNPRSF)
[15]
  DMS-derived PSSM value, position P6: 0

## TLNPNAKEFNPRSF(averaged) P4F (TLNFNAKEFNPRSF)
[4]
  DMS-derived PSSM value (averaged), position P4: 0.005863

## KSTLNPNAKEFNPRSF L4D (KSTDNPNAKEFNPRSF)
[16]
  DMS-derived PSSM value, position L4: 0

## TLNPNAKEFNPRSFSQ N10T (TLNPNAKEFTPRSFSQ)
[8]
  DMS-derived PSSM value, position N10: 0.03853

## KSTLNPNAKEFNPRSF N5R (KSTLRPNAKEFNPRSF)
[3]
  DMS-derived PSSM value, position N5: 0

## KSTLNPNAKEFNPRSF S2G (KGTLNPNAKEFNPRSF)
[6]
  DMS-derived PSSM value, position S2: 0.02803

## KSTLNPNAKEFNPRSF N7V (KSTLNPVAKEFNPRSF)
[3]
  DMS-derived PSSM value, position N7: 0.01745

## TLNPNAKEFNPRSF(averaged) T1F (FLNPNAKEFNPRSF)
[17]
  DMS-derived PSSM value (averaged), position T1: 0.03587

## KSTLNPNAKEFNPRSF P13S (KSTLNPNAKEFNSRSF)
[15]
  DMS-derived PSSM value, position P13: 0.02375

## TLNPNAKEFNPRSFSQ F14Q (TLNPNAKEFNPRSQSQ)
[2]
  DMS-derived PSSM value, position F14: 0.1174

## TLNPNAKEFNPRSFSQ E8I (TLNPNAKIFNPRSFSQ)
[14]
  DMS-derived PSSM value, position E8: 0.01296

## TLNPNAKEFNPRSFSQ S13Q (TLNPNAKEFNPRQFSQ)
Prey ATXN2, peptide TLNPNAKEFNPRSFSQ, S = wild type
  DMS-derived PSSM value, position S13: 0.0185

## KSTLNPNAKEFNPRSF N12T (KSTLNPNAKEFTPRSF)
[3]
  DMS-derived PSSM value, position N12: 0.02601

## KSTLNPNAKEFNPRSF P13L (KSTLNPNAKEFNLRSF)
[15]
  DMS-derived PSSM value, position P13: 0.006424

## TLNPNAKEFNPRSF(averaged) T1H (HLNPNAKEFNPRSF)
[17]
  DMS-derived PSSM value (averaged), position T1: 0.01509

## TLNPNAKEFNPRSF(averaged) S13R (TLNPNAKEFNPRRF)
[10]
  DMS-derived PSSM value (averaged), position S13: 0.00496

## KSTLNPNAKEFNPRSF P13M (KSTLNPNAKEFNMRSF)
[15]
  DMS-derived PSSM value, position P13: 0

## TLNPNAKEFNPRSF(averaged) T1E (ELNPNAKEFNPRSF)
[17]
  DMS-derived PSSM value (averaged), position T1: 0.1201

## TLNPNAKEFNPRSF(averaged) N3R (TLRPNAKEFNPRSF)
[1]
  DMS-derived PSSM value (averaged), position N3: 0.012

## KSTLNPNAKEFNPRSF N7Y (KSTLNPYAKEFNPRSF)
[3]
  DMS-derived PSSM value, position N7: 0.00548

## TLNPNAKEFNPRSF(averaged) A6P (TLNPNPKEFNPRSF)
[12]
  DMS-derived PSSM value (averaged), position A6: 0

## TLNPNAKEFNPRSFSQ L2R (TRNPNAKEFNPRSFSQ)
[18]
  DMS-derived PSSM value, position L2: 0

## TLNPNAKEFNPRSF(averaged) N3K (TLKPNAKEFNPRSF)
[1]
  DMS-derived PSSM value (averaged), position N3: 0

## TLNPNAKEFNPRSF(averaged) R12G (TLNPNAKEFNPGSF)
Prey ATXN2, TLNPNAKEFNPRSF(averaged) over the two overlapping peptides, R = wild type
  DMS-derived PSSM value (averaged), position R12: 0.06327

## KSTLNPNAKEFNPRSF F16Y (KSTLNPNAKEFNPRSY)
[5]
  DMS-derived PSSM value, position F16: 0.101

## TLNPNAKEFNPRSF(averaged) P4Y (TLNYNAKEFNPRSF)
[4]
  DMS-derived PSSM value (averaged), position P4: 0

## TLNPNAKEFNPRSF(averaged) A6N (TLNPNNKEFNPRSF)
[12]
  DMS-derived PSSM value (averaged), position A6: 0

## TLNPNAKEFNPRSF(averaged) K7R (TLNPNAREFNPRSF)
[13]
  DMS-derived PSSM value (averaged), position K7: 0.01712

## TLNPNAKEFNPRSF(averaged) E8L (TLNPNAKLFNPRSF)
[7]
  DMS-derived PSSM value (averaged), position E8: 0

## TLNPNAKEFNPRSFSQ L2H (THNPNAKEFNPRSFSQ)
[18]
  DMS-derived PSSM value, position L2: 0

## TLNPNAKEFNPRSF(averaged) S13I (TLNPNAKEFNPRIF)
[10]
  DMS-derived PSSM value (averaged), position S13: 0.01901

## KSTLNPNAKEFNPRSF L4G (KSTGNPNAKEFNPRSF)
[16]
  DMS-derived PSSM value, position L4: 0

## TLNPNAKEFNPRSF(averaged) N10G (TLNPNAKEFGPRSF)
[1]
  DMS-derived PSSM value (averaged), position N10: 0.02059

## TLNPNAKEFNPRSFSQ P11E (TLNPNAKEFNERSFSQ)
Prey ATXN2, peptide TLNPNAKEFNPRSFSQ, P = wild type
  DMS-derived PSSM value, position P11: 0.0006031
